{"source": "ChEMBL document CHEMBL5604062", "about": "“ASAP - ZIKV NS2B-NS3 protease fluorescence dose response” (2024)", "note": "pIC50: −log10 of the molar value. Several values for one entry are separate records, joined by “and”; a condition that tells them apart may be missing. Equal values may be shown once."}
{"target": "Nonstructural protein 3 (Zika virus, UniProt A0A024AXB9)", "sequence (A0A024AXB9 whole entry)": "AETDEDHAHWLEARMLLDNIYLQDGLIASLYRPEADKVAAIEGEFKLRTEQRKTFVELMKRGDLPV", "experiment": "Functional biochemical assay to identify treatments for viral infectious disease that targets Zika NS2B-NS3 protease. Utilizing a direct enzyme activity measurement method, reading the fluorescence intensity is used to characterize the relative potency of inhibitors as IC50.", "parameters": "species or system PRVABC59"}
{"smiles": "c1ccc2c(CN3CCCc4cnccc4C3)n[nH]c2c1", "pIC50": "< 4.00"}
{"smiles": "NCc1cccc(NC(=O)[C@H](NS(=O)(=O)c2cccc(Cl)c2)c2ccc(OCc3ccccc3)cc2)c1", "pIC50": 4.24}
{"smiles": "O=C(Nc1cc(Cl)cc(C(=O)Nc2cccc(C3CCNCC3)c2)c1)OCc1ccccc1", "pIC50": "4.88 and 4.90"}
{"smiles": "NCc1cccc(NC(=O)[C@@H]2C[C@@H]3CC[C@H]2N3C(=O)OCc2ccccc2)c1", "pIC50": "< 4.00"}
{"smiles": "CCCNC(=O)Cn1ccnc(N2CC[C@H](CO)C2)c1=O", "pIC50": "< 4.00"}
{"smiles": "COc1cc(C(=O)O)c(S(=O)(=O)Nc2ccc(Oc3ccccc3Cl)cc2)cc1F", "pIC50": 4.04}
{"smiles": "NCc1ccc(CNC(=O)c2cc(Cl)cc(NC(=O)OCc3ccccc3)c2)cc1", "pIC50": 4.37}
{"smiles": "COc1ccc(C)cc1S(=O)(=O)N[C@@H](C(=O)Nc1cccc(CN)c1)c1ccc(OCc2ccccc2)cc1", "pIC50": 4.26}
{"smiles": "CN(C)Cc1cccc(-c2ccc(S(=O)(=O)Nc3ccc(Cl)cc3C(=O)O)cc2)c1", "pIC50": "< 4.00"}
{"smiles": "NCc1cccc(NC(=O)[C@@]23C[C@@H](NC(=O)OCc4ccccc4)C[C@@H]2C3)c1", "pIC50": "< 4.00"}
{"smiles": "NCc1cccc(NC(=O)C[C@H](NC(=O)OCc2ccccc2)c2ccc(OCc3ccccc3)c(Br)c2)c1", "pIC50": "5.57 and 5.49 and 5.52"}
{"smiles": "Cn1ccc(-c2n[nH]cc2CN2CCC(c3nc4ccccc4s3)CC2)n1", "pIC50": "< 4.00"}
{"smiles": "NCc1cccc(NC(=O)C[C@@H](NC(=O)OCc2ccccc2)c2ccc3c(c2)OCO3)c1", "pIC50": "< 4.00"}
{"smiles": "O=C(O)c1cc(Cl)ccc1NS(=O)(=O)c1ccc(-c2cc[nH]n2)cc1", "pIC50": "< 4.00"}
{"smiles": "O=C(O)c1cc(Cl)ccc1S(=O)(=O)N[C@H]1CCn2c(nnc2C(F)(F)F)C1", "pIC50": "< 4.00"}
{"smiles": "CCNC(=O)c1cn(CC)c(=O)c(N2CC[C@@H](CO)C2)n1", "pIC50": "< 4.00"}
{"smiles": "CCn1nccc1S(=O)(=O)N[C@@H](C(=O)Nc1cccc(CN)c1)c1ccc(OCc2ccccc2)cc1", "pIC50": "< 4.00"}
{"smiles": "CCn1ccnc(N2CCC[C@H]2C(=O)O)c1=O", "pIC50": "< 4.00"}
{"smiles": "NCC1CCN(C(=O)c2cc(Cl)cc(NC(=O)OCc3ccccc3)c2)CC1", "pIC50": 4.01}
{"smiles": "Cn1ccc(CS(=O)(=O)N[C@@H](C(=O)Nc2cccc(CN)c2)c2ccc(OCc3ccccc3)cc2)n1", "pIC50": "< 4.00"}
{"smiles": "O=C(O)c1cc(Cl)ccc1S(=O)(=O)Nc1ccc(C(=O)N2CCCCC2)cc1", "pIC50": "< 4.00"}
{"smiles": "O=C(O)c1cc(Cl)ccc1NS(=O)(=O)c1ccc(-c2ccncc2)cc1", "pIC50": "< 4.00"}
{"smiles": "CN(C)[C@@H]1C[C@H](C(=O)Nc2cccc(CN)c2)CN(C(=O)OCc2ccccc2)C1", "pIC50": "< 4.00"}
{"smiles": "c1cncc(CC2CN(Cc3n[nH]c4ccccc34)C2)c1", "pIC50": "< 4.00"}
{"smiles": "O=C(O)c1cc(Cl)ccc1NS(=O)(=O)c1ccc(-c2cncs2)cc1", "pIC50": 4.46}
{"smiles": "O=C(Nc1cc(Cl)cc(C(=O)Nc2cccc(CC3CCNCC3)c2)c1)OCc1ccccc1", "pIC50": "< 4.00"}
{"smiles": "NCc1cccc(NC(=O)C[C@@H](NC(=O)OCc2ccccc2)C2CCCCC2)c1", "pIC50": "< 4.00 and 4.25"}
{"smiles": "NCc1cccc(NC(=O)C[C@@H]2[C@H]3CC[C@H](C3)N2C(=O)OCc2ccccc2)c1", "pIC50": "< 4.00"}
{"smiles": "NCc1cccc(NC(=O)[C@H](NC(=O)COc2ccccc2)c2ccc(OCc3ccccc3)cc2)c1", "pIC50": 4.58}
{"smiles": "NCCc1ccc(NC(=O)c2cc(Cl)cc(NC(=O)OCc3ccccc3)c2)cc1", "pIC50": 4.97}
{"smiles": "Cn1cc(CCOc2ccc([C@@H](NC(=O)OCc3ccccc3)C(=O)Nc3cccc(CN)c3)cc2)nn1", "pIC50": "< 4.00"}
{"smiles": "Cc1cc(NS(=O)(=O)c2ccc(Cl)cc2C(=O)O)nn1Cc1ccccc1", "pIC50": "< 4.00"}
{"smiles": "NCCc1cccc(NC(=O)c2cc(Cl)cc(NC(=O)OCc3ccccc3)c2)c1", "pIC50": "5.39 and 5.41"}
{"smiles": "Fc1cccc(F)c1-c1n[nH]cc1CN1CCC(c2nc3ccccc3s2)CC1", "pIC50": "< 4.00"}
{"smiles": "COC(=O)Cc1ccccc1-c1ccc(S(=O)(=O)Nc2ccc(Cl)cc2C(=O)O)cc1", "pIC50": "< 4.00"}
{"smiles": "N#Cc1ccc(S(=O)(=O)Nc2ccc(Oc3ccccc3Cl)cc2)c(C(=O)O)c1", "pIC50": "< 4.00"}
{"smiles": "O=C(O)c1cc(Cl)ccc1S(=O)(=O)Nc1ccc(-c2n[nH]c3c2CCCC3)cc1", "pIC50": "< 4.00"}
{"smiles": "Cc1cc(C)cc(C(=O)N2CCC(NS(=O)(=O)c3ccc(Cl)cc3C(=O)O)CC2)c1", "pIC50": "< 4.00"}
{"smiles": "COc1ccc([C@@H](CC(=O)Nc2cccc(CN)c2)NC(=O)OCc2ccccc2)cc1Br", "pIC50": 4.03}
{"smiles": "COC(=O)c1n[nH]cc1CN1CCC(c2nc3ccccc3s2)CC1", "pIC50": "< 4.00"}
{"smiles": "CCC1([C@H](NC(=O)OCc2ccccc2)C(=O)Nc2cccc(CN)c2)CCCCC1", "pIC50": "< 4.00"}
{"smiles": "CCOC1CC(S(=O)(=O)N[C@H](C(=O)Nc2cccc(CN)c2)c2ccc(OCc3ccccc3)cc2)C1", "note": "(stereo partly specified)", "pIC50": "< 4.00"}
{"smiles": "NCc1cccc(NC(=O)[C@H]2[C@@H]3CC[C@@H](C3)[C@H]2NC(=O)OCc2ccccc2)c1", "pIC50": 4.51}
{"smiles": "COc1ncc(C(=O)Nc2cccc(CN)c2)cc1NC(=O)OCc1ccccc1", "pIC50": "< 4.00"}
{"smiles": "C[C@@H]1C[C@H](NS(=O)(=O)c2ccc(Cl)cc2C(=O)O)C[C@H](C)N1Cc1ccccc1", "pIC50": "< 4.00"}
{"smiles": "CSc1ccc([C@H](CC(=O)Nc2cccc(CN)c2)NC(=O)OCc2ccccc2)cc1", "pIC50": 4.36}
{"smiles": "Cc1cccc(N2CCC(NS(=O)(=O)c3ccc(Cl)cc3C(=O)O)CC2)n1", "pIC50": "< 4.00"}
{"smiles": "c1ccc2sc(C3CCN([C@H]4Cc5[nH]c6ccccc6c5C4)CC3)nc2c1", "pIC50": "< 4.00"}
{"smiles": "CCn1cc(C(=O)NCc2ccccc2)nc(N2CC[C@@H](CO)C2)c1=O", "pIC50": "< 4.00"}
{"smiles": "C[C@@H](N)c1ccc(NC(=O)c2cc(Cl)cc(NC(=O)OCc3ccccc3)c2)cc1", "pIC50": 4.83}
{"smiles": "NCc1cccc(NC(=O)[C@@H](NS(=O)(=O)C[C@H]2CCCCO2)c2ccc(OCc3ccccc3)cc2)c1", "pIC50": "< 4.00"}
{"smiles": "CCc1ncc(CN2CCC(c3nc4ccccc4s3)CC2)[nH]1", "pIC50": "< 4.00"}
{"smiles": "c1ccc2sc(C3CCN(Cc4n[nH]c5c4CCCC5)CC3)nc2c1", "pIC50": "< 4.00"}
{"smiles": "COc1ccc(-c2cc(NS(=O)(=O)c3ccc(Cl)cc3C(=O)O)ccc2OC)cc1", "pIC50": "< 4.00"}
{"smiles": "COc1n[nH]cc1CN1CCC(c2nc3ccccc3s2)CC1", "pIC50": "< 4.00"}
{"smiles": "O=C(O)c1cc(Cl)ccc1NS(=O)(=O)c1ccc(-c2ccc(F)cc2)cc1", "pIC50": 4.48}
{"smiles": "CC1(N2CCC(NS(=O)(=O)c3ccc(Cl)cc3C(=O)O)CC2)CCCCC1", "pIC50": "< 4.00"}
{"smiles": "CCCOc1ccc([C@@H](CC(=O)Nc2cccc(CN)c2)NC(=O)OCc2ccccc2)cc1", "pIC50": "< 4.00 and 4.18"}
{"smiles": "CN(C)c1cc(-c2ccc(S(=O)(=O)Nc3ccc(Cl)cc3C(=O)O)cc2)ccn1", "pIC50": "< 4.00"}
{"smiles": "c1ccc2c(CN[C@H]3CCc4c([nH]c5ccccc45)C3)n[nH]c2c1", "pIC50": "< 4.00"}
{"smiles": "CN1CC=C(c2ccc(S(=O)(=O)Nc3ccc(Cl)cc3C(=O)O)cc2)CC1", "pIC50": "< 4.00"}
{"smiles": "CN(C(=O)c1cc(Cl)cc(NC(=O)OCc2ccccc2)c1)c1ccc(CN)cc1", "pIC50": "< 4.00"}
{"smiles": "CC(=O)N1CCC[C@H]1C(=O)N[C@@H](C(=O)Nc1cccc(CN)c1)c1ccc(OCc2ccccc2)cc1", "pIC50": "< 4.00"}
{"smiles": "c1cncc(C2CC(NCc3n[nH]c4ccccc34)C2)c1", "note": "(stereo unspecified)", "pIC50": "< 4.00"}
{"smiles": "COc1ccc(NS(=O)(=O)c2ccc(Cl)cc2C(=O)O)cc1S(=O)(=O)N1CCCC1", "pIC50": "< 4.00"}
{"smiles": "N#Cc1ccccc1O[C@H]1CC[C@H](NS(=O)(=O)c2ccc(Cl)cc2C(=O)O)CC1", "pIC50": "< 4.00"}
{"smiles": "O=C(O)c1cc(Cl)ccc1S(=O)(=O)Nc1ccc(F)c(NC(=O)C2CC2)c1", "pIC50": "< 4.00"}
{"smiles": "NC[C@H]1CC[C@H](CNC(=O)c2cc(Cl)cc(NC(=O)OCc3ccccc3)c2)CC1", "pIC50": "4.60 and 4.59"}
{"smiles": "O=C(O)c1cc(Cl)ccc1S(=O)(=O)NC1CCN(c2nc(C3CC3)cc(C(F)(F)F)n2)CC1", "pIC50": 4.33}
{"smiles": "CCc1ccc(S(=O)(=O)N[C@@H](C(=O)Nc2cccc(CN)c2)c2ccc(OCc3ccccc3)cc2)cc1", "pIC50": 4.28}
{"smiles": "CCn1cc(S(=O)(=O)N[C@@H](C(=O)Nc2cccc(CN)c2)c2ccc(OCc3ccccc3)cc2)cn1", "pIC50": "< 4.00"}
